In US9421193B2, “Benzothiazole derivatives and a use thereof for the treatment of cancer” (Korea Institute of Radiological & Medical Sciences, priority 2014, dated 2016):

Assays:
[1] = tested on: non-small cell lung cancer cell strain H460; experiment: Nuclear agglutination and segmentation, Hoechst 33342 staining; type: cell-based, human; settings: 50 uM, about 48 hours
Protocol: (§1) To observe typical nuclear morphological changes from cell death, the cells treated with the compounds PB01 or PB11 of Examples 5 and 3 were collected, followed by removing a supernatant. After 500 μl of a fixing solution as a 1:9 mixture of a 37% formaldehyde solution and PBS buffer solution was added into the remaining cells, thoroughly mixed together, and left at room temperature for about 10 minutes for fixation. After the fixed cells were centrifuged at about 2,000 rpm for about 5 minutes, the fixing solution was removed, and the remaining cells were floated in a PBS buffer solution. After dropping the floating cells onto a slide glass, followed by cytospinning at about 1,000 rpm for about 5 minutes to fix the floating cells onto the slide glass. The slide glass with the fixed cells was treated with 2 μg/mL of a Hoechst 33342 solution (Sigma, St. Louis, Mo., U.S.A), followed by staining at room temperature for about 20 minutes. After termination of the staining, the staining reagent was washed out, and nuclear morphological changes in the cancer cells were observed by florescent microscopy (ECLIPSE E600; Nikon, Tokyo, Japan) at a 400× magnification.

[2] = tested on: non-small cell lung cancer cell strain A549; experiment: as above; type: cell-based, human; settings: 50 uM, about 48 hours
Protocol: as §1

[3] = tested on: non-small cell lung cancer cell strain H460; experiment: LDH release; type: cell-based, human; settings: 50 uM, 0 to 48 hours, compared to untreated
Protocol: (§2) After incubation of the non-small cell lung cancer cell strains A549 and H460 treated with the compound PB01 or PB11 for 8, 24, and 48 hours, only supernatants were recovered the culture products. The activity of lactate dehydrogenase (LDH) may be measured by detecting an amount of LDH released from the cell cytosol with a Cytotoxicity Detection Kit (available from Roche Applied Science, Indianapolis, Ind.). The amounts of LDH release induced by the compound PB01 or PB11 were calculated as a percentage amount of extracellular LDH released from the cells with respect to a total amount of LDH as a sum of the extracellular released LDH and the intracellular LDH remaining in the cells.

[4] = tested on: non-small cell lung cancer cell strain A549; experiment: LDH release; type: cell-based, human; settings: 50 uM, 0 to 48 hours, compared to untreated
Protocol: as §2

[5] = tested on: non-small cell lung cancer cells A549; experiment: Sub-G1 phase cell number, propidium iodide flow cytometry; type: cell-based, human; settings: 50 μM, 48 hours
Protocol: (§3) After incubation of the non-small cell lung cancer cells A549 and H460 treated with 50 μM of the compound PB01 or PB11 of Examples ?5 and 3 for 48 hours, the non-small cell lung cancer cells A549 and H460 were collected and floated with a 1×PBS (pH 7.4), followed by fixing at about −20° C. with a 70% cold ethanol, washing twice with a 1×PBS, and then staining with 10 μg/mL of propidium iodide (including 0.5% of PI, Tween-20, 100 μg/mL of 0.1% RNase) at room temperature for about 30 minutes. The stained cells were analyzed by flow cytometry with a FACScan™ (available from Becton Dicknson).

[6] = tested on: non-small cell lung cancer cells H460; experiment: as above; type: cell-based, human; settings: 50 μM, 48 hours
Protocol: as §3

[7] = tested on: non-small cell lung cancer cell strain H460; experiment: Cancer cell growth inhibition, WST-1 cell viability; type: cell-based, human; settings: compared among cell strains
Protocol: (§4) Cancer cell growth inhibitory effects of the compounds PB01 and PB11 of Examples 5 and 3 identified as PPAR-γ ligands were evaluated. Growth inhibitory effects of the compounds PB01 and PB11 of Examples 5 and 3 on various cancer cells, including human non-small cell lung cancer cell strains (A549, H460), breast cancer cell strains (MCF-7, T-470), colorectal cancer cell strains (LoVo, SW480), and leukocytes cancer cell strains (HL-60, K562) (American Type Culture Collection, Manassas, Va.), were evaluated using WST-1 method. About 5×10^3 cells per well of each type of cancer cell strains were portioned into a 96-well plate, and incubated with different concentrations of each of the compounds PB01 and PB11 of Examples 5 and 3 in 200 ul of a culture solution for 24 hours, 48 hours, and 72 hours. After the incubation for the different durations, 10 ul of a WST-1 solution was added to each well, followed by incubation at about 37° C. for about 1 hour. Absorbance at 450 nm was measured to determine cell viability.

[8] = tested on: non-small cell lung cancer cell strain A549; experiment: as above; type: cell-based, human; settings: compared among cell strains
Protocol: as §4

[9] = tested on: non-cancer lung cell strain MRC-9; experiment: Cell growth inhibition in non-cancer lung cells; type: cell-based; settings: MRC-9 non-cancer lung cells
[10] = tested on: non-cancer lung cell strain MRC-5; experiment: Cell growth inhibition in non-cancer lung cells; type: cell-based; settings: MRC-5 non-cancer lung cells

Cc1noc(C)c1CSc1nc2ccc(NC(=O)C3CCC(=O)CC3)cc2s1 [PB11]
nuclear morphological changes (apoptotic bodies) [1]: increased apoptotic bodies due to nuclear agglutination | nuclear morphological changes (apoptotic bodies) [2]: increased apoptotic bodies due to nuclear agglutination | amount of extracellular LDH released [3]: increased with time | amount of extracellular LDH released [4]: increased with time | number of sub-G1 phase cells [5]: sharp increase | number of sub-G1 phase cells [6]: sharp increase

COC1CCC(C(=O)Nc2ccc3nc(SCc4c(C)noc4C)sc3c2)CC1 (stereo not shown) [PB01]
cancer cell growth inhibition [7]: most effective | cancer cell growth inhibition [8]: most effective | nuclear morphological changes (apoptotic bodies) [1]: increased apoptotic bodies due to nuclear agglutination | nuclear morphological changes (apoptotic bodies) [2]: increased apoptotic bodies due to nuclear agglutination | cell growth inhibitory effect [9]: nearly zero | amount of extracellular LDH released [3]: increased with time | amount of extracellular LDH released [4]: increased with time | number of sub-G1 phase cells [5]: sharp increase | number of sub-G1 phase cells [6]: sharp increase | cell growth inhibitory effect [10]: nearly zero
